From article PMC11990924, “Inhibition of Tyrosinase and Melanogenesis by Carboxylic Acids: Mechanistic Insights and Safety Evaluation” (Molecules, 2025) come the findings set out here.

One assay has as its target mushroom tyrosinase (Agaricus bisporus, UniProt C7FF04). As to the kind of experiment: Inhibition of mushroom tyrosinase activity (L-DOPA, OD475). Type of assay: biochemical. The settings on record: read-out: tyrosinase inhibition rate. The procedure:
L-DOPA solution (5 mM) and tyrosinase (400 U/mL) (Sigma-Aldrich, St. Louis, MO, USA) were prepared in PBS buffer (pH 7.4) (Qingdao Hope Bio-Technology Co., Ltd., Qingdao, China). A reaction mixture was prepared by combining 240 μL of carboxylic acid at various concentrations, 360 μL of L-DOPA solution, and 120 μL of tyrosinase. […] Deionized water was used as the control.

Another assay deals with T1, tyrosinase (Agaricus bisporus, UniProt C7FF04).
T1 construct: purchased Sigma-Aldrich
The experiment in a line: Fluorescence spectra analysis of tyrosinase. The settings on record: 6 mM; excitation 280 nm. Type of assay: binding, mushroom. The protocol:
Carboxylic acid solutions at various concentrations were mixed with PBS buffer and tyrosinase (final concentration of 60 U/mL) and then transferred to a black 96-well plate. Fluorescence analysis was conducted using a microplate reader (Infinite 200Pro, Tecan).

Read-outs that look alike come from different tables or passages of the source. Some results are limits rather than exact numbers.

Sequence of mushroom tyrosinase (C7FF04 2-392): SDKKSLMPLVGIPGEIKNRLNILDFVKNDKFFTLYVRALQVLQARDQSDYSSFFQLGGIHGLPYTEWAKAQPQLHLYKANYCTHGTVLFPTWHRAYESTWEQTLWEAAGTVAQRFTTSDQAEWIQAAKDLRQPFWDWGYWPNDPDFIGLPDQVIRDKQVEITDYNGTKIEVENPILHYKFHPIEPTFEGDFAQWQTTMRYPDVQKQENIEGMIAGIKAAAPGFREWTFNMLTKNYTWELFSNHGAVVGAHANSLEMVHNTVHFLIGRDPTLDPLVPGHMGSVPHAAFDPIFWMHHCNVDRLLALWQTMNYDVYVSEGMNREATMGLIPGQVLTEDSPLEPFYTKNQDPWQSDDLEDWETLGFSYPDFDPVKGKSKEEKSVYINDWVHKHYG
T1 sequence (C7FF04 1-392 limits assumed): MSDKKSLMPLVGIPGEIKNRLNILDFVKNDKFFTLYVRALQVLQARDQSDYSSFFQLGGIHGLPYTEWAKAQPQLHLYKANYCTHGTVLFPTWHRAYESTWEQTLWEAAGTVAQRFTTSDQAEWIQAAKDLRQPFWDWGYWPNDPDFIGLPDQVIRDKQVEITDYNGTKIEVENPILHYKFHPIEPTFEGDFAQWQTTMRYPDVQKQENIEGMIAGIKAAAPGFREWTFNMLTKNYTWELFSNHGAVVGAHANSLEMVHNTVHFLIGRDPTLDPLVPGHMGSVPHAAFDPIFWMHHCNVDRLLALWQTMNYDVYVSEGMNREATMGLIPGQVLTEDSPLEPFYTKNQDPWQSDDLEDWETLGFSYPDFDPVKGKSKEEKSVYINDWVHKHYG

As usually defined, the inhibition is how much of the control response was suppressed. In the case of `O=C(O)C(O)Cc1ccccc1` (stereo not shown) [3-phenyllactic acid], on mushroom tyrosinase (6 mM), the inhibition at 6000 µM was > 80%. Further, the “decrease of tyrosinase fluorescence intensity” value on tyrosinase came to 29.3%.
As to `O=C(O)CC(O)C(=O)O` (stereo not shown) [malic acid], the inhibition at 6000 µM on mushroom tyrosinase was > 80%. Also, on tyrosinase, the “decrease of tyrosinase fluorescence intensity” value is 29.0%.
